Laboratory results: PubChem BioAssay (NCI)
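1) Cells in 96-well plates. 2) Compound, 48 h, 5 concentrations. 3) Linear interpolation between surrounding doses. 4) Unreached endpoint = highest concentration. GI50: concentration for 50% inhibition of growth. TGI: total growth inhibition.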

Key:
Experiment in all cases: DTP human tumour cell line panel, 48 h
[1] = tested on: HOP-92 NSCLC
[2] = tested on: EKVX NSCLC
[3] = tested on: HCT-116 colon
[4] = tested on: SK-MEL-2 melanoma
[5] = tested on: U251 CNS
[6] = tested on: PC-3 prostate
[7] = tested on: UACC-257 melanoma
[8] = tested on: OVCAR-3 ovarian
[9] = tested on: SN12C renal
[10] = tested on: HCT-15 colon
[11] = tested on: NCI-H23 lung
[12] = tested on: SF-539 CNS
[13] = tested on: ACHN renal
[14] = tested on: RXF 393 renal
[15] = tested on: SNB-75 CNS
[16] = tested on: A498 renal
[17] = tested on: NCI/ADR-RES ovarian
[18] = tested on: MDA-MB-435
[19] = tested on: HL-60(TB) leukemia
[20] = tested on: IGROV1 ovarian
[21] = tested on: SK-OV-3 ovarian
[22] = tested on: CAKI-1 renal
[23] = tested on: OVCAR-8 ovarian
[24] = tested on: T-47D breast
[25] = tested on: TK-10 renal
[26] = tested on: HT29 colon
[27] = tested on: UO-31 renal
[28] = tested on: SK-MEL-5 melanoma
[29] = tested on: 786-0 renal
[30] = tested on: HCC-2998 colon
[31] = tested on: MCF7 breast
[32] = tested on: RPMI-8226 leukemia
[33] = tested on: A549 NSCLC
[34] = tested on: KM12 colon
[35] = tested on: HS 578T breast
[36] = tested on: M14 melanoma
[37] = tested on: SW-620 colon
[38] = tested on: OVCAR-5 ovarian
[39] = tested on: COLO 205 colon
[40] = tested on: DU-145 prostate
[41] = tested on: MALME-3M melanoma
[42] = tested on: NCI-H226 lung
[43] = tested on: MDA-MB-231 breast
[44] = tested on: BT-549 breast
[45] = tested on: SF-295 CNS
[46] = tested on: SNB-19 CNS
[47] = tested on: HOP-62 NSCLC
[48] = tested on: SF-268 CNS
[49] = tested on: UACC-62 melanoma
[50] = tested on: NCI-H460 lung
[51] = tested on: SK-MEL-28 melanoma
[52] = tested on: LOX IMVI melanoma
[53] = tested on: CCRF-CEM leukemia
[54] = tested on: OVCAR-4 ovarian
[55] = tested on: NCI-H522 lung
[56] = tested on: MOLT-4 leukemia
[57] = tested on: K-562 leukemia
[58] = tested on: SR leukemia

CCCCN(CCCC)c1ccc(C(=N)c2ccc(N(C)C)cc2)cc1
GI50 [1]: 362 nM | TGI [1]: 1.78 µM | GI50 [2]: 334 nM | TGI [2]: 1450 nM | GI50 [3]: 307 nM | TGI [3]: 1220 nM | GI50 [4]: 829 nM | TGI [4]: 2.24 µM | GI50 [5]: 460 nM | TGI [5]: 1.42 µM | GI50 [6]: 409 nM | TGI [6]: 1.67 µM | GI50 [7]: 562 nM | TGI [7]: 1.35 µM | GI50 [8]: 448 nM | TGI [8]: 1.6 µM | GI50 [9]: 1190 nM | TGI [9]: 2770 nM | GI50 [10]: 665 nM | TGI [10]: 2200 nM | GI50 [11]: 278 nM | TGI [11]: 981 nM | GI50 [12]: 1530 nM | TGI [12]: 3.16 µM | GI50 [13]: 1040 nM | TGI [13]: 2.38 µM | GI50 [14]: 1250 nM | TGI [14]: 2610 nM | GI50 [15]: 1140 nM | TGI [15]: 2420 nM | GI50 [16]: 178 nM | TGI [16]: 1800 nM | GI50 [17]: 335 nM | TGI [17]: 1270 nM | GI50 [18]: 348 nM | TGI [18]: 1.33 µM | GI50 [19]: 336 nM | TGI [19]: 1160 nM | GI50 [20]: 906 nM | TGI [20]: 2440 nM | GI50 [21]: 1360 nM | TGI [21]: 2.66 µM | GI50 [22]: 356 nM | TGI [22]: 1490 nM | GI50 [23]: 591 nM | TGI [23]: 1.78 µM | GI50 [24]: 322 nM | TGI [24]: 1.51 µM | GI50 [25]: 643 nM | TGI [25]: 1.84 µM | GI50 [26]: 292 nM | TGI [26]: 1080 nM | GI50 [27]: 91.9 nM | TGI [27]: 1280 nM | GI50 [28]: 505 nM | TGI [28]: 1.7 µM | GI50 [29]: 1100 nM | TGI [29]: 2.55 µM | GI50 [30]: 429 nM | TGI [30]: 1620 nM | GI50 [31]: 377 nM | TGI [31]: 1.51 µM | GI50 [32]: 224 nM | TGI [32]: 0.737 µM | GI50 [33]: 700 nM | TGI [33]: 1970 nM | GI50 [34]: 516 nM | TGI [34]: 1750 nM | GI50 [35]: 1180 nM | TGI [35]: 3.28 µM | GI50 [36]: 908 nM | TGI [36]: 2.25 µM | GI50 [37]: 438 nM | TGI [37]: 1.78 µM | GI50 [38]: 1310 nM | TGI [38]: 2860 nM | GI50 [39]: 455 nM | TGI [39]: 1.65 µM | GI50 [40]: 1030 nM | TGI [40]: 2.23 µM | GI50 [41]: 651 nM | TGI [41]: 2.23 µM | GI50 [42]: 1200 nM | TGI [42]: 2630 nM | GI50 [43]: 1320 nM | TGI [43]: 2.88 µM | GI50 [44]: 1290 nM | TGI [44]: 2640 nM | GI50 [45]: 349 nM | TGI [45]: 1340 nM | GI50 [46]: 951 nM | TGI [46]: 2370 nM | GI50 [47]: 1330 nM | TGI [47]: 2690 nM | GI50 [48]: 1300 nM | TGI [48]: 2.73 µM | GI50 [49]: 449 nM | TGI [49]: 1.77 µM | GI50 [50]: 788 nM | TGI [50]: 2.32 µM | GI50 [51]: 1310 nM | TGI [51]: 2.6 µM | GI50 [52]: 536 nM | TGI [52]: 2.02 µM | GI50 [53]: 544 nM | TGI [53]: 3.24 µM | GI50 [54]: 375 nM | TGI [54]: 1.46 µM

Cc1ccc(S(=O)(=O)OC[C@]23CCC(C)(C)C[C@H]2C2=CC[C@@H]4[C@@]5(C)CCCNC(C)(C)[C@@H]5CC[C@@]4(C)[C@]2(C)CC3)cc1
GI50 [4]: 2190 nM | TGI [4]: 4.83 µM | GI50 [12]: 1710 nM | TGI [12]: 3.15 µM | GI50 [13]: 1690 nM | TGI [13]: 3.07 µM | GI50 [14]: 1380 nM | TGI [14]: 2780 nM | GI50 [15]: 1480 nM | TGI [15]: 2940 nM | GI50 [16]: 5990 nM | TGI [16]: 21400 nM | GI50 [21]: 1760 nM | TGI [21]: 3.26 µM | GI50 [22]: 1450 nM | TGI [22]: 2820 nM | GI50 [25]: 1770 nM | TGI [25]: 3.33 µM | GI50 [27]: 1290 nM | TGI [27]: 2680 nM | GI50 [35]: 1820 nM | TGI [35]: 4.08 µM | GI50 [55]: 1690 nM | TGI [55]: 3.38 µM | GI50 [40]: 1790 nM | TGI [40]: 3.37 µM | GI50 [48]: 2320 nM | TGI [48]: 8.44 µM

O=C1NCN(c2ccccc2)C12CCN(CCc1ccc3[nH]c(=S)[nH]c3c1)CC2
TGI [1]: 93.7 µM | TGI [2]: > 100000 nM | TGI [3]: > 100000 nM | TGI [4]: 41 µM | TGI [5]: 98.4 µM | TGI [6]: 75.1 µM | TGI [7]: 15.6 µM | TGI [8]: > 100 µM | TGI [9]: > 100000 nM | TGI [10]: > 100000 nM | TGI [11]: > 100000 nM | TGI [12]: 58.4 µM | TGI [13]: > 100 µM | TGI [14]: 36500 nM | TGI [16]: > 100000 nM | TGI [17]: > 100000 nM | TGI [18]: 35.6 µM | TGI [19]: > 100000 nM | TGI [20]: > 100000 nM | TGI [21]: > 100 µM | TGI [22]: > 100000 nM | TGI [23]: > 100 µM | TGI [24]: 56.8 µM | TGI [25]: 92.9 µM | TGI [26]: > 100000 nM | TGI [28]: 31.7 µM | TGI [29]: > 100 µM | TGI [31]: 92.8 µM | TGI [56]: > 100 µM | TGI [32]: 59.3 µM | TGI [33]: > 100000 nM | TGI [34]: > 100000 nM | TGI [35]: > 100 µM | TGI [36]: 58.3 µM | TGI [37]: 25.8 µM | TGI [55]: > 100 µM | TGI [38]: > 100000 nM | TGI [39]: 30.7 µM | TGI [40]: > 100 µM | TGI [41]: 30.8 µM | TGI [43]: 41.6 µM | TGI [44]: > 100000 nM | TGI [45]: > 100000 nM | TGI [46]: > 100000 nM | TGI [47]: > 100000 nM | TGI [48]: > 100 µM | TGI [49]: > 100 µM | TGI [50]: > 100 µM | TGI [51]: 20.3 µM | TGI [52]: 36.8 µM | TGI [53]: 22 µM | TGI [54]: > 100 µM

CN(C)c1ccc(-c2ccc(-c3ccc(C(=N)N)c(F)c3)s2)cc1
GI50 [1]: 1400 nM | TGI [1]: 3.03 µM | GI50 [3]: 1170 nM | TGI [3]: 2600 nM | GI50 [8]: 1940 nM | TGI [8]: 3.59 µM | GI50 [57]: 258 nM | TGI [57]: 699 nM | GI50 [16]: 14.9 nM | TGI [16]: 1150 nM | GI50 [18]: 1650 nM | TGI [18]: 3.17 µM | GI50 [22]: 1590 nM | TGI [22]: 3110 nM | GI50 [23]: 2230 nM | TGI [23]: 5.38 µM | GI50 [27]: 1540 nM | TGI [27]: 3050 nM | GI50 [29]: 1870 nM | TGI [29]: 3.49 µM | GI50 [32]: 1910 nM | TGI [32]: 4.48 µM | GI50 [36]: 1740 nM | TGI [36]: 3.39 µM | GI50 [37]: 1480 nM | TGI [37]: 3.07 µM | GI50 [40]: 1650 nM | TGI [40]: 3.18 µM | GI50 [49]: 1830 nM | TGI [49]: 3.66 µM | GI50 [50]: 1770 nM | TGI [50]: 3.37 µM | GI50 [58]: 244 nM | TGI [58]: 692 nM | GI50 [53]: 329 nM | TGI [53]: 1.26 µM | GI50 [54]: 1870 nM | TGI [54]: 3.5 µM
